Assay results published in US7947279B2, “Peptide having hydrolase activity” (The Trustees of Columbia University in the City of New York, priority 2005, dated 2011).
Entries after “also recorded” stand apart in the source; their conditions may differ.

Assays:
[1] = tested on: CA1-LTP in hippocampal slices; experiment: CA1-LTP in hippocampal slices (theta-burst); assay type: cell-based, mouse; settings: for baseline transmission in slices without tetanic stimulation: non-tetanized slices; for rescue of LTP at different concentrations, S18Y versus TAT-HA-Uch-L1 (words): 1 hr pre-treatment, then Aβ 200 nM 20 min, as low as 5 nM; for Aβ-induced impairment of CA1-LTP (words): fusion protein 20 nM 1 hr, then plus Aβ 200 nM 20 min
[2] = tested on: BST at the Schaffer collateral/CA1 connection of hippocampal slices; experiment: Basal synaptic transmission (BST) in hippocampal slices; assay type: cell-based, mouse
[3] = tested on: PPF in hippocampal slices; experiment: Paired pulse facilitation (PPF) in hippocampal slices; assay type: cell-based, mouse
[4] = tested on: SY5Y neuroblastoma cells transfected with a degron CL1-GFP expression vector; experiment: Proteasome reporter assay (GFP^u); assay type: cell-based, human; settings: substance alone
Procedure: Proteasome reporter assays. In this cell line, human neuroblastoma SH-SY5Y cells were permanently transfected with reporter construct consisting of green fluorescent protein (GFP) conjugated at its C-terminus to a short degron sequence (CL-1) (Gilon et al., 1998). […] The SY5Y-GFP^u cells were grown in 1×DMEM (Invitrogen) supplemented with 15% fetal bovine serum (JRH), 1× penicillin/streptomycin (Gibco). After indicated treatments, GFP^u concentrations were assayed by densitometric analysis of immunoblots of total protein extracts (10 ug/lane) using monoclonal GFP antibodies (Santa Cruz Biotechnology) and visualized with HRP-conjugated secondary antibodies and ECL (Pierce). Loading equalization was normalized by probing blots with anti-ERK antibodies (Santa Cruz Biotechnology).

PKA [5] = experiment: PKA kinase activity in hippocampal slices; assay type: cell-based, mouse
PKA [6] = experiment: PKA kinase activity in hippocampal cultures; assay type: cell-based, rat
Procedure: PKA Kinase Activity Measurement. Primary hippocampal neurons from E18 rats were dissociated and cultured as described (Vitolo et al, Proc Natl Acad Sci USA 99:13217-13221 (2002)). […]
Hippocampal slices were lysed with RIPA lysis buffer and homogenized by Dounce homogenizer on ice. 5 DIV primary cultures were treated for 24 hrs and cells were lysed with RIPA lysis buffer.
Levels of intracellular PKA kinase activity were measured by PKA Kinase Activity Assay Kit (Stressxpress) according to manufacturer's instructions.
(§1) Preparation of Cell Cultures. Hippocampal cell cultures were prepared as previously described (Vitolo et al., 2002). In cell culture experiments fetuses at embryonic day 18 from timed pregnant Sprague-Dawley rats (Taconic Farms) were used. Fetuses were sacrificed and the hippocampi removed. Neurons were then dissociated, plated on 6 well-plates coated with poly-L-lysine and maintained in a defined serum-free medium containing minimum essential medium supplemented with N-2, glucose, albumin, pyruvic acid, antibiotics and antimycotics. […] 5 DIV cells were used for the experiments.

Uch-L1 = experiment: Hydrolase (ubiquitin-AMC) assay on hippocampal slices; assay type: cell-based, mouse; settings: 200 nM Aβ alone
Procedure: Slice preparation. Mice were decapitated and their hippocampi removed. […] Slices were permitted to recover from cutting for at least 90 min. before recordings. For experiments with lactacystin, slices were perfused with the drug or vehicle for 2 to 4 hrs in a small volume (10 ml) chamber.
Briefly, hippocampal tissue was treated with tissue protein extraction reagent (T-PER; Pierce) containing freshly added EDTA-free protease inhibitors. Homogenate was centrifuged at 10,000 rpm for 5 min. Protein concentration was measured in the supernatant using the BCA protein assay reagent. In some experiments hydrolysis was initiated by adding 10 μl of 20 nM Uch-L1 or Uch-L3 (Boston Biochem). The hydrolase assay was performed using fluorogenic ubiquitin-7-amino-4-methylcoumarin (ubiquitin-AMC) (Boston Biochem) as a substrate. The substrate was diluted in assay buffer (50 mM Tris-HCL, 0.5 mM EDTA, 5 mM dithiothreitol and 0.1 mg/ml ovalbumin, pH 7.6). Each reaction mixture containing 400 nM substrate and 100 μg enzyme sample was incubated for 5 min at room temperature. The reaction was monitored using a fluorescence spectrophotometer (CytoFluor Series 4000, ABI Inc) at 25° C. The free AMC fluorophore was excited at 380 nm and measured at 460 nm. […] In some experiments, hydrolysis was also measured on the soluble and insoluble fractions (FIG. 28D). In a group of experiments hydrolysis was measured by mixing ubiquitin-AMC with 20 nM TAT fusion proteins (FIG. 27C). In other experiments the substrate was Nedd8-AMC (Boston Biochem).

monoubiquitin = experiment: Monoubiquitin levels (quantitative Western blot); assay type: cell-based, mouse
Procedure: (§2) Western Blotting: Protein levels were assessed using standard procedures. Protein extraction was performed using buffer with and without detergent. For the extraction of protein using detergent, hippocampal tissues and cultured hippocampal neurons (5 DIV) were homogenized in RIPA buffer (50 mM Tris-HCl pH 7.4, 1% Triton X-100, 1% sodium deoxycholate, 0.1% SDS, 150 mM sodium chloride, 10 mM sodium fluoride, 30 mM sodium pyrophosphate, 50 mM sodium orthovanadate) containing 1× complete protease inhibitor (Roche) and 1 mM phenylmethylsulfonyl fluoride (PMSF). For extraction of proteins without detergent, hippocampal extracts were homogenized with disposable dounce homogenizers in buffer A, containing 10 mM HEPES pH 7.3, 300 mM sucrose, protease 1× complete protease inhibitor (Roche) and PMSF. After centrifugation at 10,000×g supernatant proteins were resolved on a 8% or 4-20% gradient Tris-Glycine gel, transferred onto PVDF or nitrocellulose membrane and blocked in 5% skim milk in PBS-Tween 0.1% (PBS-T). Membranes were probed with primary antibodies, and after washing with PBS-T incubated with an appropriate HRP-conjugated secondary antibody. The following antibodies were used: mouse monoclonal anti-ubiquitin (Chemicon), rabbit polyclonal anti-pCREB (Upstate Biotech.), rabbit polyclonal anti-PKA-RIIα (Santa Cruz Biotech. Inc), mouse monoclonal anti-Uch-L1 (Novocastra), monoclonal mouse anti-HA (Santa Cruz Biotech. Inc), and anti-PKA IIα. Detection was performed using HRP-conjugated secondary antibodies (Pierce, Rockford, Ill.). To control loading and transfer, protein immunoreactivities were normalized against total extracellular signal-regulated protein kinases (ERK1/2) levels with a rabbit analyzed using a rabbit polyclonal anti-ERK1/2 antibody (Cell Signaling Technology, Inc). NIH IMAGE was used to analyze the scanned blots and quantify the intensity of the protein signals.

PKA RIIα = PKA RIIα levels in hippocampal slices (Western blot); assay type: cell-based, mouse; settings: for PKA RIIα levels (words): Aβ 200 nM 20 min alone
Procedure: as §2

cAMP = experiment: Intracellular cAMP enzyme immunoassay; assay type: cell-based, rat; settings: Aβ 3 μM 24 hrs alone
Procedure: Intracellular cAMP Enzyme Immunoassay. Hippocampal neurons from E18 rats were dissociated and plated on poly-L-lysine coated 6-well plates in minimum essential medium supplemented with N-2, glucose, albumin, pyruvic acid, antibiotics and antimycotics. […] After 24 hours, cell lysates were obtained and intracellular cAMP levels were measured using cAMP Biotrak Enzymeimmunoassay (EIA) System (Amersham) in accordance with manufacturer's instructions.

phospho-CREB = experiment: Phospho-CREB immunofluorescence in hippocampal slices; assay type: cell-based, mouse; settings: for tetanus-induced increase in phospho-CREB (words): Aβ alone
phospho-CREB at Ser-133 = experiment: Phospho-CREB (Ser-133) Western blot in hippocampal cultures; assay type: cell-based, rat; settings: for glutamate-induced CREB phosphorylation (words): 3 μM Aβ 24 hrs alone; for effect of Aβ on glutamate-induced CREB phosphorylation (words): fusion protein 100 nM, 3 μM Aβ 24 hrs, 50 μM glutamate 15 min
Procedure: as §2, §1

[7] = lactacystin 10 μM, 2 to 4 hour exposure
[8] = prolonged exposure lactacystin 10 μM

`CCCCCCOC(=O)[C@]1(O)C[C@@H]2O[C@@]1(C)n1c3ccccc3c3c4c(c5c6ccccc6n2c5c31)C(=O)NC4` [KT5720, reference compound] was tested, and the “reversal of LTP reduction by Uch-L1 fusion protein” value ([1]; KT5720 1 μM, Uch-L1 fusion protein 20 nM, Aβ 200 nM) was “blocked”.

For `CC(=O)N[C@@H](CSC(=O)[C@]1([C@@H](O)C(C)C)NC(=O)[C@H](C)[C@@H]1O)C(=O)O` [lactacystin, reference compound], the “LTP” value ([1]; lactacystin 10 μM, 2-4 hrs) was “markedly reduced; also recorded: blocked”, the LTP [1, 7] was “approximately 50 % that of vehicle treated slices” and the “LTP” value ([1]; lactacystin 10 μM, 15 min) was “did not change; also recorded: does not affect; also recorded: did not affect CA1-LTP”. The “baseline transmission in slices without tetanic stimulation” value [1] was “did not affect baseline transmission”, the “LTP at 60 min” value [1, 8] was 116.17±14.69% and the “LTP at 120 min” value [1, 8] was 119.25±12.82 % of baseline. The “BST” value ([2]; lactacystin 10 μM, 2-4 hrs) was “markedly reduced; also recorded: strongly reduced”, the “BST (slope of the input-output curve at 35 V)” value [2, 7] was “approximately 50 % that of vehicle treated slices” and the “BST” value ([2]; lactacystin 10 μM, 15 min) was “did not change; also recorded: does not affect; also recorded: did not affect BST”. The “BST at 35V stimulation” value [2, 8] was 0.93±0.06 mV/ms, the “PPF” value ([3]; lactacystin 10 μM, 2-4 hrs) was “markedly reduced” and the “PPF at 50 ms interval” value [3, 8] was 150.96±10.18%. The “PPF at 300 ms interval” value [3, 8] was 119.11±5.43%, the “GFP^u levels” value [4] was “much larger increase in GFP” and the PKA activity (PKA [5]; lactacystin 10 μM 1 hr pretreatment, TAT-HA-Uch-L1 plus Aβ) was 74.9±3.21%. The “beneficial effect of TAT-HA-Uch-L1 on PKA activity” value (PKA [6]; lactacystin 10 μM for 1 hr) was “blocked the beneficial effect”.

“Aβ: oligomeric Aβ42 prepared from lyophilized synthetic peptide (American Peptide) [reference compound]” was tested, and the “ubiquitin-c-terminal hydrolase enzymatic activity” value (Uch-L1) was 72.36±6.81 % of TAT-HA treated WT slices, the “LTP” value ([1]; Aβ 200 nM alone) was “markedly reduced; also recorded: LTP was reduced” and the “LTP at 120 min after tetanus” value ([1]; oligomeric Aβ 200 nM, 20 min perfusion) was 136.34±13.40 % of baseline slope. The “BST in WT slices (words)” value ([2]; fusion protein 20 nM 1 hr or Aβ 200 nM 20 min, alone) was “did not reveal any significant difference among treatments; also recorded: does not affect CA1-BST”, the “decrease of monoubiquitin levels” value (monoubiquitin; oligomeric Aβ42 200 nM for 20 min) was about 70% and the “monoubiquitin levels” value (monoubiquitin; substance alone) was “reduced”. For the same molecule, the “GFP^u levels” value [4] was “increase in GFP levels”, the “PKA activity in slices” value (PKA [5]; 200 nM Aβ for 20 min alone) was “reduced” and the PKA activity (PKA [5]; 200 nM Aβ for 20 minutes) was 71.75±2.21 % of control. The “PKA activity in cultures” value (PKA [6]; 3 μM Aβ for 24 hrs alone) was “reduced”, the “PKA RIIα levels (words)” value (PKA RIIα) was “increase in PKA RIIα levels” and the “PKA RIIα levels (words)” value (PKA RIIα; listed as Aβ42) was “marked increase in RIIα”. For the same molecule, the “PKA RIIα levels (words)” value (PKA RIIα; listed as amyloid-beta) was “increased”, the RIIα levels (PKA RIIα; Aβ42 200 nM for 20 minutes) was 163.68±10.51 % of TAT-HA control slices and the “cAMP levels” value (cAMP) was “reduced cAMP levels”. For the same molecule, the “tetanus-induced increase in phospho-CREB (words)” value (phospho-CREB) was “blocks the increase in phosphorylated CREB; also recorded: blocked the increase in phospho-CREB; also recorded: blockade of the increase in CA1-phospho-CREB”, the “tetanus-induced increase in phospho-CREB (words)” value (phospho-CREB; listed as Aβ42) was “blocked the increase in CA1 immunofluorescence” and the “phospho-CREB immunofluorescence without theta-burst” value (phospho-CREB; no tetanus) was “did not increase immunofluorescence; also recorded: did not modify immunofluorescence; also recorded: neither Aβ42 alone nor TAT-HA-Uch-L1 alone nor TAT-HA-Uch-L1 paired with Aβ42 induced changes”. For the same molecule, the “glutamate-induced CREB phosphorylation (words)” value (phospho-CREB at Ser-133) was “annulled the increase in phospho-CREB” and the “glutamate-induced CREB phosphorylation (words)” value (phospho-CREB at Ser-133; listed as Aβ42) was “strong decrease in CREB phosphorylation”.

B1: TAT-HA-Uch-L1(S18Y): mutant TAT-HA-Uch-L1 construct, S18Y (ligase site), made by site-directed mutagenesis (protein, UniProt P09936 1-220, looked up, variant S18Y)
Ubiquitin carboxyl-terminal …: MQLKPMEINPEMLNKVLYRLGVAGQWRFVDVLGLEEESLGSVPAPACALLLLFPLTAQHENFRKKQIEELKGQEVSPKVYFMKQTIGNSCGTIGLIHAVANNQDKLGFEDGSVLKQFLSETEKMSPEDRAKCFEKNEAIQAAHDAVAQEGQCRVDDKVNFHFILFNNVDGHLYELDGRMPFPVNHGASSEDTLLKDAAKVCREFTEREQGEVRFSAVALC
modifications: fused to HIV TAT transduction peptide and HA tag
notes: mutant TAT-HA-Uch-L1 construct, S18Y (ligase site), made by site-directed mutagenesis
B1 was tested, and the “rescue of LTP at different concentrations, S18Y versus TAT-HA-Uch-L1 (words)” value [1] was “no difference between the two forms”, the “rescue of LTP at different concentrations, S18Y versus TAT-HA-Uch-L1 (words)” value ([1]; listed as TAT-HA-Uch-L1 (S18Y)) was “No difference was detected” and the “Aβ-induced impairment of CA1-LTP (words)” value [1] was “protected; also recorded: completely reversed”. For the same molecule, the “Aβ-induced impairment of CA1-LTP (words)” value ([1]; listed as TAT-HA-Uch-L1 (S18Y)) was “significantly enhanced the amplitude of LTP”, the “LTP in slices not treated with Aβ (words)” value ([1]; fusion protein 20 nM, 1 hr, WT slices, 3 theta-burst trains) was “did not affect the amounts of potentiation” and the “baseline transmission in slices without tetanic stimulation” value [1] was “Neither TAT-HA-Uch-L1(C90S) nor TAT-HA-Uch-L1(S18Y) affected baseline; also recorded: nor affected basal transmission”. The “effect of Aβ on glutamate-induced CREB phosphorylation (words)” value (phospho-CREB at Ser-133) was “totally blocked the effect of Aβ on CREB phosphorylation; also recorded: completely opposed” and the “effect of Aβ on glutamate-induced CREB phosphorylation (words)” value (phospho-CREB at Ser-133; listed as TAT-HA-Uch-L1 (S18Y)) was “completely opposed”.
